In patent US10947205B2, “Oxazolidinone compounds and methods of use thereof as antibacterial agents” (priority 2015, dated 2021):
In brackets after ≈: the same amount, converted by molar mass. Read-outs that look alike come from different tables or passages of the source.

How the values were obtained:
[1] = test system: Mycobacterium tuberculosis (Mtb); experiment: microbe, parasite or virus in culture; assay type: cell-based, Mycobacterium tuberculosis H37Rv (Mtb-GFP); details: 168 h
[2] = test system: Staphylococcus aureus (methicillin resistant, MB5393, COL); experiment: microbe, parasite or virus in culture; assay type: cell-based; details: MRSA, 22 h, read-out: MRSA COL MITC95 μM
Method: Inhibition of Staphylococcus aureus (methicillin resistant, MB5393, COL) growth was assessed in cation adjusted Mueller Hinton II broth (CAMHB) in 384-well microtiter plates. Bacteria were dispensed into microtiter plates at approximately 5×10^5 actively growing cells in 49 μL volumes per well. Cells were exposed to 2-fold serial dilutions of compounds from 200 μM to 0.195 μM and growth compared to drug-free control. Compound dilutions were prepared in 100% dimethylsulfoxide and added to microtiter plates in 1 μL volumes per well. Full growth control wells contained dimethylsufoxide and bacteria. No growth control wells contained dimethysulfoxide and CAMHB but no bacteria. Growth inhibition was assessed after a 22-hour growth period by measuring optical density using a spectrophotometer. The lowest concentration of test compound required to inhibit 95% of the growth of the bacteria was defined as the MITC95. All studies were done in a BSL2 facility.

[3] = test system: mitochondrial protein synthesis in HepG2 cells (COX-I / SDH-A); experiment: Mitochondrial protein synthesis assay; assay type: cell-based; details: Homo sapiens, read-out: MPS IC50_μM
Method: (§1) Inhibition of mitochondrial protein synthesis was assessed in HepG2 cells by comparing the levels of two subunits of oxidative phosphorylation enzyme complexes, subunit I of Complex IV (COX-I) and the 70 kDa subunit of Complex II (SDH-A). COX-I is mitochondrial DNA encoded and SDH-A is nuclear DNA encoded. HepG2 cells were seeded in 96-well collagen coated plates at 8,000 cells per well and exposed to 2-fold serial dilutions of compounds from 100 LM to 6.25 μM. Microtiter plates were incubated for approximately 5 replication cycles (4 days) prior to assessment of protein levels using a kit as described by the manufacturer (ab 110217 MitoBiogenesis In Cell ELISA Kit, Abcam, Cambridge, Mass.). Inhibition of mitochondrial protein synthesis was expressed as a ratio of COX-1 to SDH-A levels.
as §1, with “μM” for “LM”

[4] = pH 6.8, read-out: Mtb Cho MITC95_μM
[5] = pH 6.8, read-out: Mtb Glu MITC95_μM
[6] = 96 h, HepG2 cells, 4 days, ratio of COX-1 to SDH-A levels

SMILES | MIC [1, 4] [µM] | MIC [1, 5] [µM] | MIC [2] [µM] | IC50 [3, 6] [µM] | IC50 ([3]; HepG2, 96 h) [µM]
NC[C@H]1CN(c2ccc(-c3cccs3)c(F)c2)C(=O)O1 [Example 56, (S)-5-(aminomethyl)-3-(3-fluoro-4-(thiophen-2-yl)phenyl)oxazolidin-2-one] | 0.39 (≈ 0.114 µg/mL) | 0.39 (≈ 0.114 µg/mL) | 100 (≈ 29.2 µg/mL) | > 20 | 
CS(=O)(=O)Nc1ccc(-c2ccc(N3C[C@H](CN)OC3=O)cc2F)cc1 [Example 17, N-{4′-[(5S)-5-(aminomethyl)-2-oxo-1,3-oxazolidin-3-yl]-2′-fluorobiphenyl-4-yl}methanesulfonamide] | 0.29 (≈ 0.11 µg/mL) | 0.09 (≈ 0.0341 µg/mL) | 200 (≈ 75.9 µg/mL) | > 20 | 
CSc1ccc(-c2ccc(N3C[C@H](CNC(=O)C4CC4)OC3=O)cc2F)cc1 [Example 41, (S)—N-((3-(2-fluoro-4′-(methylthio)-[1,1′-biphenyl]-4-yl)-2-oxooxazolidin-5-yl)methyl)cyclopropanecarboxamide] | 0.04 (≈ 0.016 µg/mL) | 0.04 (≈ 0.016 µg/mL) | 200 (≈ 80.1 µg/mL) | 8 | 
C[S+]([O-])c1ccc(-c2ccc(N3C[C@H](CN)OC3=O)cc2F)cc1 (stereo partly drawn) [Example 7, (5S)-5-(aminomethyl)-3-[2-fluoro-4′-(methylsulfinyl)biphenyl-4-yl]-1,3-oxazolidin-2-one] | 0.09 (≈ 0.0314 µg/mL) | 0.04 (≈ 0.0139 µg/mL) | 200 (≈ 69.7 µg/mL) | > 20 | 
N#Cc1ccc(-c2ccc(N3C[C@H](CN)OC3=O)cc2F)cc1 [Example 18, 4′-[(5S)-5-(aminomethyl)-2-oxo-1,3-oxazolidin-3-yl]-2′-fluorobiphenyl-4-carbonitrile] | 0.09 (≈ 0.028 µg/mL) | 0.04 (≈ 0.0125 µg/mL) | 50 (≈ 15.6 µg/mL) | > 20 | 
CSc1ccc(-c2ccc(N3C[C@H](Cn4cncn4)OC3=O)cc2F)cc1 [Example 43, (R)-5-((1H-1,2,4-triazol-1-yl)methyl)-3-(2-fluoro-4′-(methylthio)-[1,1′-biphenyl]-4-yl)oxazolidin-2-one] | 0.19 (≈ 0.073 µg/mL) | 0.58 (≈ 0.223 µg/mL) | 200 (≈ 76.9 µg/mL) | > 20 | 
N#Cc1cccc(-c2ccc(N3C[C@H](CN)OC3=O)cc2F)c1 [Example 13, 4′-[(5S)-5-(aminomethyl)-2-oxo-1,3-oxazolidin-3-yl]-2′-fluorobiphenyl-3-carbonitrile] | 0.19 (≈ 0.0592 µg/mL) | 0.19 (≈ 0.0592 µg/mL) | 200 (≈ 62.3 µg/mL) | > 20 | 
NC[C@H]1CN(c2ccc(-c3ccc(C4CC4)nc3)c(F)c2)C(=O)O1 [Example 33, (5S)-5-(aminomethyl)-3-[4-(6-cyclopropylpyridin-3-yl)-3-fluorophenyl]-1,3-oxazolidin-2-one] | 0.19 (≈ 0.0622 µg/mL) | 0.845 (≈ 0.277 µg/mL) | 200 (≈ 65.5 µg/mL) | > 20 | 
NC[C@H]1CN(c2ccc(-c3ccc4c(c3)CNC4=O)c(F)c2)C(=O)O1 [Example 34, 5-{4-[(5S)-5-(aminomethyl)-2-oxo-1,3-oxazolidin-3-yl]-2-fluorophenyl}-2,3-dihydro-1H-isoindol-1-one] | 0.04 (≈ 0.0137 µg/mL) | 0.04 (≈ 0.0137 µg/mL) | 200 (≈ 68.3 µg/mL) | > 20 | 
CC(=O)NC[C@H]1CN(c2ccc(N3CCn4ncnc4C3)cc2)C(=O)O1 [Example 42, (S)—N-((3-(4-(5,6-dihydro-[1,2,4]triazolo[1,5-a]pyrazin-7(8H)-yl)phenyl)-2-oxooxazolidin-5-yl)methyl)acetamide] | 1.5 (≈ 0.535 µg/mL) | 1.5 (≈ 0.535 µg/mL) | 200 (≈ 71.3 µg/mL) |  | > 20
Cn1cc(-c2ccc(N3C[C@H](CN)OC3=O)cc2F)cn1 [Example 37, (5S)-5-(aminomethyl)-3-[3-fluoro-4-(1-methyl-1H-pyrazol-4-yl)phenyl]-1,3-oxazolidin-2-one] | 0.39 (≈ 0.113 µg/mL) | 0.29 (≈ 0.0842 µg/mL) | 200 (≈ 58.1 µg/mL) | > 20 | 
CSc1ccc(-c2ccc(N3C[C@H](Cn4cnnn4)OC3=O)cc2F)cc1 [Example 44, (5R)-3-[2-fluoro-4′-(methylsulfanyl)biphenyl-4-yl]-5-(1H-tetrazol-1-ylmethyl)-1,3-oxazolidin-2-one] | 0.04 (≈ 0.0154 µg/mL) | 0.19 (≈ 0.0732 µg/mL) | 200 (≈ 77.1 µg/mL) | > 20 | 
NC[C@H]1CN(c2ccc(-c3cnc(N4CCCOCC4)nc3)c(F)c2)C(=O)O1 [Example 29, (5S)-5-(aminomethyl)-3-{3-fluoro-4-[2-(1,4-oxazepan-4-yl)pyrimidin-5-yl]phenyl}-1,3-oxazolidin-2-one] | 1.5 (≈ 0.581 µg/mL) | 0.39 (≈ 0.151 µg/mL) | 200 (≈ 77.5 µg/mL) | > 25 | 
NC[C@H]1CN(c2ccc(-c3ccc(S(N)(=O)=O)cc3)c(F)c2)C(=O)O1 [Example 6, 4′-[(5S)-5-(aminomethyl)-2-oxo-1,3-oxazolidin-3-yl]-2′-fluorobiphenyl-4-sulfonamide] | 0.04 (≈ 0.0146 µg/mL) | 0.04 (≈ 0.0146 µg/mL) | 100 (≈ 36.5 µg/mL) | > 20 | 
CS(=O)(=O)c1ccc(-c2ccc(N3C[C@H](CN)OC3=O)cc2F)cc1 [Example 4, (5S)-5-(aminomethyl)-3-[2-fluoro-4′-(methylsulfonyl)biphenyl-4-yl]-1,3-oxazolidin-2-one] | 0.09 (≈ 0.0328 µg/mL) | 0.04 (≈ 0.0146 µg/mL) | 200 (≈ 72.9 µg/mL) | 22 | 
CSc1ccc(-c2ncc(N3C[C@H](CNC(C)=O)OC3=O)cc2F)cc1 [Example 40, (S)—N-((3-(5-fluoro-6-(4-(methylthio)phenyl)pyridin-3-yl)-2-oxooxazolidin-5-yl)methyl)acetamide] | 0.09 (≈ 0.0338 µg/mL) | 0.076 (≈ 0.0285 µg/mL) | 4.69 (≈ 1.76 µg/mL) |  | > 15
CCNC(=O)NC[C@H]1CN(c2ccc(-c3ccc(SC)cc3)c(F)c2)C(=O)O1 [Example 58, (S)-1-ethyl-3-((3-(2-fluoro-4′-(methylthio)-[1,1′-biphenyl]-4-yl)-2-oxooxazolidin-5-yl)methyl)urea] | 0.19 (≈ 0.0767 µg/mL) | 0.58 (≈ 0.234 µg/mL) | 200 (≈ 80.7 µg/mL) |  | > 20
NC[C@H]1CN(c2cc(F)c(N3CCOCC3)c(F)c2)C(=O)O1 [Example 59, (S)-5-(aminomethyl)-3-(3,5-difluoro-4-morpholinophenyl)oxazolidin-2-one] | 0.39 (≈ 0.122 µg/mL) | 0.09 (≈ 0.0282 µg/mL) | 200 (≈ 62.7 µg/mL) | > 20 | 
NC[C@H]1CN(c2cnc(N3CCS(=O)(=O)CC3)c(F)c2)C(=O)O1 [Example 48, (S)-5-(aminomethyl)-3-(6-(1,1-dioxidothiomorpholino)-5-fluoropyridin-3-yl)oxazolidin-2-one] | 0.78 (≈ 0.269 µg/mL) | 0.39 (≈ 0.134 µg/mL) | 200 (≈ 68.9 µg/mL) | > 100 | 
COc1ncc(-c2ccc(N3C[C@H](CN)OC3=O)cc2F)cn1 [Example 28, (5S)-5-(aminomethyl)-3-[3-fluoro-4-(2-methoxypyrimidin-5-yl)phenyl]-1,3-oxazolidin-2-one] | 1.14 (≈ 0.363 µg/mL) | 0.3 (≈ 0.0955 µg/mL) | 200 (≈ 63.7 µg/mL) | > 100 | 
CSc1ncc(-c2ccc(N3C[C@H](CN)OC3=O)cc2F)cn1 [Example 32, (5S)-5-(aminomethyl)-3-{3-fluoro-4-[2-(methylsulfanyl)pyrimidin-5-yl]phenyl}-1,3-oxazolidin-2-one] | 0.29 (≈ 0.097 µg/mL) | 0.24 (≈ 0.0803 µg/mL) | 200 (≈ 66.9 µg/mL) | > 20 | 
NC[C@H]1CN(c2ccc(-c3cccnc3)c(F)c2)C(=O)O1 [Example 24, (5S)-5-(aminomethyl)-3-(3-fluoro-4-pyridin-3-ylphenyl)-1,3-oxazolidin-2-one] | 0.09 (≈ 0.0259 µg/mL) | 0.04 (≈ 0.0115 µg/mL) | 200 (≈ 57.5 µg/mL) | > 20 | 
NCC(=O)NC[C@H]1CN(c2ccc(-c3ccc(C(N)=O)cc3)c(F)c2)C(=O)O1 [Example 57, (S)-4′-(5-((2-aminoacetamido)methyl)-2-oxooxazolidin-3-yl)-2′-fluoro-[1,1′-biphenyl]-4-carboxamide] | 0.535 (≈ 0.207 µg/mL) | 0.29 (≈ 0.112 µg/mL) | 25 (≈ 9.66 µg/mL) | 50 | 
CS(=N)(=O)c1ccc(-c2ccc(N3C[C@H](Cn4ccnn4)OC3=O)cc2F)cc1 (stereo partly drawn) [Example 64, (5R)-5-((1H-1,2,3-triazol-1-yl)methyl)-3-(2-fluoro-4′-(S-methylsulfonimidoyl)-[1,1′-biphenyl]-4-yl)oxazolidin-2-one] | 0.09 (≈ 0.0374 µg/mL) | 0.09 (≈ 0.0374 µg/mL) | 0.39 (≈ 0.162 µg/mL) | > 20 | 
